In patent US9505728B2, “Triazolone compounds and uses thereof” (INCEPTION 2, INC., priority 2012, dated 2016) one finds IC50 data, which are given here for one compound.

Structures are written as SMILES. Like-named read-outs stand apart in the source and are kept apart here. A value given as a limit tells only on which side of the number the result lay.

Holding throughout (format): cell-based
In one assay the target is T1, PPAR gamma (Homo sapiens, UniProt P37231).
T1 construct: host or cells: engineered reporter cells of the kit
T1 sequence (P37231 1-505): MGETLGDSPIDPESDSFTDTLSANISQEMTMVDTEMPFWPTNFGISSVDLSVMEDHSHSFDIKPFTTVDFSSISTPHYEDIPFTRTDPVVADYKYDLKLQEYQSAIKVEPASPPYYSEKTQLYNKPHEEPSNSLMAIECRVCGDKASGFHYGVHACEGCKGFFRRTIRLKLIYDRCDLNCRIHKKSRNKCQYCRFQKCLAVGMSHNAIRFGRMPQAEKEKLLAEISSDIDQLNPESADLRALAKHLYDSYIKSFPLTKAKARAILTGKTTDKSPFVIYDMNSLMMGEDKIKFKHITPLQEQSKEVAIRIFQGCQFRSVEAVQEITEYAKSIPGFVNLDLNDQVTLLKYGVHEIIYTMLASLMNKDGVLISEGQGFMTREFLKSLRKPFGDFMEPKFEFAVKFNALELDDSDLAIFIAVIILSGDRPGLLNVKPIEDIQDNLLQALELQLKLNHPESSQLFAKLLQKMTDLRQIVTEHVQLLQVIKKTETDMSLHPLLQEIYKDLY
Briefly: Target selectivity counterscreen, PPAR γ reporter assay. As to conditions: receptor agonist at ~EC80. As for the experimental part:
(§1) Target Selectivity Assays
(§2) To determine species selectivity, a Mouse PPARα Reporter Assay System was used (Indigo Biosciences, Cat. #M00111). Activity of test compounds to antagonize or agonize other isoforms of human PPAR, for example β/δ and γ, were assessed using the corresponding kits from Indigo Biosciences (Cat. #IB00121 and #IB00101, respectively). In addition to PPAR activity, compounds were also screened for activity against other nuclear hormone receptors including Estrogen Receptor β, Glucocorticoid Receptor and Thyroid Receptor β using commercially available kits (Indigo Biosciences, Cat. #IB00411, IB00201 and IB01101, respectively). Each assay system from Indigo Biosciences uses technology analogous to the human PPARα kit, with the variance being that the cells used for each assay were engineered to over-express the receptor of interest. In addition, the appropriate receptor agonist (included with each kit) was used at ˜EC80 for assays in which antagonist potency was being assessed.
(A counterscreen serves to expose hits that act by an unwanted route or on another target.)

A further assay addresses T2, Estrogen Receptor β (Homo sapiens, UniProt Q92731).
T2 construct: host or cells: engineered reporter cells of the kit
Briefly: Target selectivity counterscreen, Estrogen Receptor β reporter assay. As to conditions: receptor agonist at ~EC80. As for the experimental part: as §1, §2

Another assay addresses T3, Glucocorticoid Receptor (Homo sapiens, UniProt P04150).
T3 construct: host or cells: engineered reporter cells of the kit
T3 sequence (P04150 1-777): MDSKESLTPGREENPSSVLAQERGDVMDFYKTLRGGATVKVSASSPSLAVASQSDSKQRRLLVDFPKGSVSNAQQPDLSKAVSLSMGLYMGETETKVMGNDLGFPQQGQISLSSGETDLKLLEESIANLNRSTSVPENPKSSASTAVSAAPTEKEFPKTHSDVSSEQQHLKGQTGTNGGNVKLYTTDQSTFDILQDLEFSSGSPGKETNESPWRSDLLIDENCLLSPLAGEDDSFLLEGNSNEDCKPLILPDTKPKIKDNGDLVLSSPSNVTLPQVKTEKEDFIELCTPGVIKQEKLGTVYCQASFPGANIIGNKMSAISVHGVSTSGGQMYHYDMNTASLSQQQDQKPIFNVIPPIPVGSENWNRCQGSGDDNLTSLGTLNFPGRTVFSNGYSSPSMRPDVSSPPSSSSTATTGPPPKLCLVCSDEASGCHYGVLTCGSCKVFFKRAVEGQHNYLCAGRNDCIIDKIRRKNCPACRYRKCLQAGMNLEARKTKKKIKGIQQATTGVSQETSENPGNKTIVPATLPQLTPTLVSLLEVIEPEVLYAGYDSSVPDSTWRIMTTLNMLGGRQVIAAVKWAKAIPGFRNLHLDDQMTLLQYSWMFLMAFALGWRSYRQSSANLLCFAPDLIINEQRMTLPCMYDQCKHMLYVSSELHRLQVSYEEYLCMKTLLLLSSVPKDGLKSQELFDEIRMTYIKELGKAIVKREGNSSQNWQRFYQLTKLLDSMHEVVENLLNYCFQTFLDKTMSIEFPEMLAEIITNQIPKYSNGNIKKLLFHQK
Briefly: Target selectivity counterscreen, Glucocorticoid Receptor reporter assay. The conditions noted are these: receptor agonist at ~EC80. As for the experimental part:
as §1, §2

For a further assay, the target named is T4, PPAR beta/delta (Homo sapiens, UniProt Q03181).
T4 construct: host or cells: engineered reporter cells of the kit
T4 sequence (Q03181 1-441): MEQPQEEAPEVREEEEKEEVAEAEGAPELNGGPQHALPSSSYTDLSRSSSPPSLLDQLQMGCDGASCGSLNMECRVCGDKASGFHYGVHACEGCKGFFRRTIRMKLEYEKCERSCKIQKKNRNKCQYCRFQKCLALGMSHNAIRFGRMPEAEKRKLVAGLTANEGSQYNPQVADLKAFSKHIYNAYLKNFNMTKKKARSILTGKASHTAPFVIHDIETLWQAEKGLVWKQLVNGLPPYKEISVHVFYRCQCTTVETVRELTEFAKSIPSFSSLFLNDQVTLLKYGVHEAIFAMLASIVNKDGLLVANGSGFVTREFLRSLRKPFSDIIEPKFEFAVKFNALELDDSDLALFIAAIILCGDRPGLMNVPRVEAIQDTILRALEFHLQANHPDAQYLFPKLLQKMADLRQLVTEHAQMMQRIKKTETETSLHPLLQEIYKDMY
Briefly: Target selectivity counterscreen, PPAR β/δ reporter assay. As to conditions: receptor agonist at ~EC80. As for the experimental part:
as §1, §2

A further assay addresses T5, Human PPARα (Homo sapiens, UniProt Q07869).
T5 construct: host or cells: proprietary non-human mammalian cells
T5 sequence (Q07869 1-468): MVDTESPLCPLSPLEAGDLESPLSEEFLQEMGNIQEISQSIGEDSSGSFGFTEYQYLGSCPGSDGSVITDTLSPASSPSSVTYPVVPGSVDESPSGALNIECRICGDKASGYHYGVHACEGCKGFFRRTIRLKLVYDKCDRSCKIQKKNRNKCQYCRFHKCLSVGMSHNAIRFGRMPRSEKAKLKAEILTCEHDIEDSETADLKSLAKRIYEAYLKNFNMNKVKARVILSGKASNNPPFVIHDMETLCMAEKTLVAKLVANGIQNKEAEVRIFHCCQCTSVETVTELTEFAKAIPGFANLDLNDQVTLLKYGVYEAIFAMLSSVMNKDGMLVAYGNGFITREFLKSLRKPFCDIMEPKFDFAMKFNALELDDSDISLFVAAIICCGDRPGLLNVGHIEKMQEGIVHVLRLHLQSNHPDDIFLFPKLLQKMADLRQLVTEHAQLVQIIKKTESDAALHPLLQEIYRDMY
Briefly: Human PPARα Reporter Assay (luciferase). The gist of the method:
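Non-human mammalian cells constitutively expressing human PPARα with a PPARα-responsive luciferase reporter were dosed with compounds right after plating. After overnight incubation, media removed and detection reagent added; luminescence taken as proportional to PPARα activation, agonist or antagonist mode.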
(A reporter such as luciferase makes a cellular process visible.)

Another assay concerns the target T6, Thyroid Receptor β (Homo sapiens, UniProt P10828).
T6 construct: host or cells: engineered reporter cells of the kit
T6 sequence (P10828 1-461): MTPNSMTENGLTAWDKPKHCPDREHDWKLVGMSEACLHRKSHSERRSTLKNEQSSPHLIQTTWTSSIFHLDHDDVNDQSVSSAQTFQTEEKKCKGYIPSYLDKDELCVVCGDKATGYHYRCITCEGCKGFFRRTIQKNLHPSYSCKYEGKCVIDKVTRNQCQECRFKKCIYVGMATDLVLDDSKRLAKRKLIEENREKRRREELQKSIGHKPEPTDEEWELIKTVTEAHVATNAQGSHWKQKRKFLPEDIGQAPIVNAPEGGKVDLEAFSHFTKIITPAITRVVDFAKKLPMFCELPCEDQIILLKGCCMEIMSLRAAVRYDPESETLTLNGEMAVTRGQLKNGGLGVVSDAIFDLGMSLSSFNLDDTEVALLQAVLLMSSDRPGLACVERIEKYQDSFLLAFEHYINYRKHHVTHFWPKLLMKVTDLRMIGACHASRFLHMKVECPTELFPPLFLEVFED
Briefly: Target selectivity counterscreen, Thyroid Receptor β reporter assay. As to conditions: receptor agonist at ~EC80. On the procedure:
as §1, §2

T2 sequence (Q92731 whole entry): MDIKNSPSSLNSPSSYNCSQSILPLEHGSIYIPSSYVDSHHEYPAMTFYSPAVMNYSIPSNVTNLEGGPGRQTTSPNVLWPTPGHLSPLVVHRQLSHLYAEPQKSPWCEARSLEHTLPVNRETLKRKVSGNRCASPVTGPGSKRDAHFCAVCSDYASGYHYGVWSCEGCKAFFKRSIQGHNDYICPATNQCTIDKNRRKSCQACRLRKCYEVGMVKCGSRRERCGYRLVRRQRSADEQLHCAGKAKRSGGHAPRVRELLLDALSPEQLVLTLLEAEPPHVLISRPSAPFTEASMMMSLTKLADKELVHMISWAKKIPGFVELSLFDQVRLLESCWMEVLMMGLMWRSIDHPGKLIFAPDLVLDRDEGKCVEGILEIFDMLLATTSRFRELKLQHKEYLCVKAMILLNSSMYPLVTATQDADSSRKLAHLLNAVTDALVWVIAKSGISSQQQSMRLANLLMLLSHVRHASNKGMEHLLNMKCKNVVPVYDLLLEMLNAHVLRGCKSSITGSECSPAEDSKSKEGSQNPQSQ

The term IC50 denotes the concentration at which inhibition is half-maximal. `CCn1c(CCCc2ccc(-c3cccc(CC(=O)O)c3)cc2)nn(Cc2ccccc2)c1=O` [Example 23, 2-(4′-(3-(1-Benzyl-4-ethyl-5-oxo-4,5-dihydro-1H-1,2,4-triazol-3-yl)propyl)-[1,1′-biphenyl]-3-yl)acetic acid]: the IC50 on PPAR gamma was over 50 µM; on Estrogen Receptor β, 17.5 µM; on Glucocorticoid Receptor, over 10 µM; on PPAR beta/delta, over 50 µM; on Human PPARα (counterscreen table, antagonist potency, read-out: PPAR alpha IC50), 0.025 µM; on Human PPARα (human PPARα reporter cells, overnight incubation, antagonism, read-out: Luciferase IC50) it was 7.31 µM. The 50% inhibitory concentration (IC50) at Thyroid Receptor β is over 10 µM.
